Values after ≈ are worked out from the molar mass of the structure shown.
How the values were obtained:
[1] = 28-day repeated-dose oral toxicity; type: in vivo
Experimental: In the rat repeated-dose toxicokinetic study, fexinidazole was administered orally by gavage once a day for 28 consecutive days to ten or fifteen Crl:CD (SD)IGS BR rats/sex/group at doses of 50, 200, or 800 mg/kg/day. A control group received the vehicle alone (5% Tween 80/0.5% methocel). Ten animals/sex/group were sacrificed at the end of the treatment period on day 29 or 30 of study. The remaining 5 animals/sex/group in the control and high-dose groups were sacrificed on day 43 at the end of a 2-weeks observation period. Systemic exposure to fexinidazole and its sulfoxide and sulfone metabolites was evaluated in three additional animals/sex/group. Samples were taken at predose, and 30 min, 1, 2, 4, 8 and 24 h after dosing on days 1, 14, and 28, and in addition at 48 and 72 h after treatment on day 28.
Study Report for NervianoMS Study 0504-2007
Fexinidaxole, a 5-nitroimidazole derivative biologically active against Trypanosoma parasites (T.b. rhodesiense and T.b. brucei ), was administered orally by gavage once daily for 28 consecutive days to ten or fifteen Crl:CD (SD)IGS BR rats/sex/group at doses of 50, 200 and 800 mg/kg/day in a volume of 10 mL/kg.
A control group received the vehicle alone (5% Tween 80 in 0.5% Methyl cellulose 400 cP […]
Ten animals/sex/group were sacrificed at the end of the treatment period on Day 29 or 30 of study. The remaining 5 animals/sex in the control and high-dose groups were sacrificed on Day 43 at the end of a two-week observation period.
Mortality, behavior and general condition were observed daily. Body weight was recorded pretest, and on Days 1, 8, 14, 21, 28, 35 and 42. Food consumption was recorded from Days […]
pre-test, and on Days 28 and 42. Hematological and clinical chemistry examinations and urine analysis were performed on Days 29 and 43.
Post-mortem examinations performed at the end of the treatment period (Day 29 or 30) or the recovery period (Day 43) included necropsy, organ weights and histological […]
Systemic exposure information was obtained from three additional animals/sex/group on Days 1 and 14 at different time-points up to 24 hours after treatment and on Day 28 at different time-points up to 72 hours after treatment.
No meaningful clinical signs or changes in ophthalmoscopic examinations were seen. […]
animals at 200 and 800 mg/kg for the entire treatment period. When treatment was […]
weight gain in comparison with controls.
Nerviano Medical Sciences […]
Humidity 55% +/- 15; monitored
Air Approximately twenty air changes per hour; monitored
Lighting Approximate 12-hour light, 12-hour dark cycle. The lighting cycle could be interrupted for performance of protocol-defined activities.
Water Municipal main, water available ad libitum
Diet 4RF21 GLP pellets ad libitum, supplied by Mucedola
Actual conditions were continuously monitored and recorded, and records were retained.
Release of each lot of feed by the manufacturers was based on analysis of composite samples of each lot, which met specifications set by the manufacturers. Water was periodically analyzed for chemical and microbial impurities. No contaminants were identified in the food or water which were expected to interfere with the results or conclusions of this study.
All the above environmental conditions, as well as all the procedures adopted throughout the study for housing and handling the animals, were in strict compliance with EEC and Italian Guidelines for Laboratory Animal Welfare.
6.2.2. Allocation/Randomization
The animals were selected and distributed into experimental groups using random number tables (Fisher and Yates). The randomization was performed during the pretest period on February 1, 2008 for all animals.
One male animal (No. 2846) assigned to satellite study group for toxicokinetic purposes, found dead on Day 2 of study, was replaced with another one taken from the same arrival batch of animals, in order to maintain the number of three animals/sex/group for subsequent […]
blood samplings. […]

[2] = system: T. b. gambiense clinical isolates; test: In vitro trypanocidal assay, clinical isolates; type: cell-based; conditions: Trypanosoma brucei, six recent clinical isolates, data not shown
Experimental: Parasites were cultured with or without the test article at a concentration of 3×10^4/mL in Minimal Essential Medium, according to Baltz et al., with the following modifications: 0.2 mM 2-mercaptoethanol, 1 mM Na-pyruvate, 0.5 mM hypoxanthine and 15% heat inactivated horse serum at 37°C in 5% CO2 in 96-well microtitre plates for 72 h. 10 µL of Alamar Blue was added for the final 3 h to determine viability. The assay was assessed by reading the fluorescence in each well at an excitation wavelength of 536 nm and at an emission wavelength of 588 nm. The IC50 values were calculated from the sigmoidal inhibition curves. For cytotoxicity, 4×10^4/mL L-6 rat skeletal myoblast cells were used, and incubations and assessments carried out as above.

in vitro = conditions: human
Experimental: Caco-2 [36] or MDR1-MDCK (Madin Darby canine kidney cells transfected with the human multidrug resistance MDR1 gene) cell monolayers were grown to confluence on collagen-coated, microporous, polycarbonate membranes in 12-well microtitre plates. The buffer for the donor chamber was Hanks balanced salt solution with 10 mM HEPES and 15 mM glucose at pH 7.4. The buffer in the receiver chamber contained the same with the addition of 1% bovine serum albumin (BSA). The test article was added at 5 µM in the assay buffer. […] After 2 h, duplicate aliquots were taken from the donor and receiver chambers and assayed via LC/MS. The apparent permeability and recovery were calculated using standard methods.
The objective of this study was to determine the bi-directional Caco-2 permeability and efflux limited absorption poten tial of thr ee test compoun ds. […]
4 . […] Th e test compound dosing concentrations were 5 µM in th e a ssay bu f fer . […] After two hours, a l iquot s wer e t a ken fr om th e r ecei ver an d don or cha m ber s. E a ch det erm ina ti on wa s per for m ed in dupl i cat e. Th e Lucifer Yellow flux was also measur ed for each mon olayer after bein g subjected to th e test compoun ds to en sur e n o damage was in flicted to th e cell mon olayer s durin g th e flux per iod. All samples wer e assayed by LC/MS/MS usin g electrospray ionization. Analytical conditions are outlined in Attachment I. The apparent permeability, Papp, and per cen t r ecover y wer e calculated as follows:
Papp = (dCr /dt) x Vr/(AxC) (1)
P er cen t Rec o ver y = 1 0 0 x ( ( V r x C rfi n a l ) + (Vd x Cd fi n a l ))/(Vd x C N) (2) […]
dCr /dt is th e slope of th e cumulative con cen tration in th e r eceiver compartment ver sus time in µM s -1. […]

With `CSc1ccc(OCc2ncc([N+](=O)[O-])n2C)cc1` [Fexinidazole, 1-methyl-2-((p-(methylthio)phenoxy)methyl)-5-nitroimidazole] the mortality ([1]; all groups) was “No compound-related mortality occurred”, the NOAEL at 28 days ([1]; both sexes, Crl:CD (SD)IGS BR, rat, in vivo, po) was 200 mg/kg/day and the decrease in hemoglobin ([1]; rat, in vivo) was 8%. The decrease in neutrophils ([1]; rat, in vivo) was “about 46%”, the decrease in triglycerides ([1]; rat, in vivo) was 50% and the increase in globulins ([1]; rat, in vivo) was “+13%”. The “increase in total cholesterol” value ([1]; rat, in vivo) was “+51%”, the liver enzymes ([1]; rat, in vivo) was “no increase in liver enzymes including AST and ALT” and the liver histopathology ([1]; rat, in vivo) was “Minimal to slight hypertrophy of the centrilobular hepatocytes”. It also gave an IC50 [2] of 0.3 to 0.93 mg/L (≈ 1.07 to 3.33 µM), a Papp A→B at 2 h, 5 µM (in vitro; Caco-2, pH 7.4) of 572 nm/s and a Papp B→A at 2 h, 5 µM (in vitro; Caco-2, pH 7.4) of 509 nm/s. The efflux ratio at 2 h, 5 µM (in vitro; Caco-2, pH 7.4) was 0.9, the recovery at 2 h, 5 µM (in vitro; Caco-2, pH 7.4, Percent Recovery A→B) was 72% and the recovery at 2 h, 5 µM (in vitro; Caco-2, pH 7.4, Percent Recovery B→A) was 81%.
